pIC50: −log10 of the molar value. Where “and” joins values, the source holds several entries; their conditions need not be identical. Equal values may be shown once.

In series [1] the target is T1, NgTet1 (Naegleria gruberi, UniProt D2W6T1).
T1 construct: His6-tagged full-length Naegleria gruberi NgTet1 (321 a. a.) protein with a thrombin cleavage site; made in house; host or cells: E. coli BL21(DE3)
T1 sequence (D2W6T1 1-321): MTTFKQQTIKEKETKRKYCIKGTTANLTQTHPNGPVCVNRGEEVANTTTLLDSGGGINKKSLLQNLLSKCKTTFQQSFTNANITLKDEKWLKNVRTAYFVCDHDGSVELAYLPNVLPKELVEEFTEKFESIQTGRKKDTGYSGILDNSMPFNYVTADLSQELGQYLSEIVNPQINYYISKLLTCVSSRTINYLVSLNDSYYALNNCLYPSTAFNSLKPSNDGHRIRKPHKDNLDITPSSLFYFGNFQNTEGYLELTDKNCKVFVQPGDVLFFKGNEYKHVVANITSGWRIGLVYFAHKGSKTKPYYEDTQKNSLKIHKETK
Put plainly: AlphaScreen competition assay with biotinylated 5mC dsDNA. The series is classed as binding. The following applies: 100 nM NgTet1, 50 nM 5mC dsDNA. As to the method: (§1) AlphaScreen™ Histidine (Nickel Chelate) Detection Kit was used to evaluate displacement of […] (^5mC dsDNA)[33],[34]. Competitor DNA oligomers in assay buffer were manually dispensed onto 384-well ProxiPlates (5 μL) in a 2-fold dilution series. His6-tagged NgTet1 or TET2CDΔLCI in assay buffer was added (5 μL), and the mixture was pre-incubated with the competitor DNA at room temperature for 10 min. Cofactors and biotinylated ^5mC dsDNA in assay buffer were added (5 μL), and the mixture was further incubated at room temperature for 10 min. A mixture of AlphaScreen beads (1:62.5 dilution) in assay buffer was added (5 μL), and the full mixture was incubated at room temperature for 1 h. The final mixtures (20 μL) contained 100 nM NgTet1 (50 nM ^5mC dsDNA) or 12.5 nM TET2CDΔLCI (12.5 nM ^5mC dsDNA), 50 μM sodium L-ascorbate, 5 μM (NH4)2Fe(SO4)2, and 5 μM disodium NOG in assay buffer (50 mM HEPES [pH 7.3], 150 mM NaCl, 0.1% v/v BSA, 0.01% v/v Tween® 20). For the assay interference counter screen, His6-tagged TET protein and biotinylated ^5mC dsDNA were replaced with 1.6 nM biotinylated His6 peptide. Chemiluminescence was measured on a PHERAstar FS/FSX (BMG Labtech) equipped with an AlphaScreen 680 570 module. All AlphaScreen bead manipulations were performed under subdued lighting. Inhibition data was normalised to reactions containing no competitor and fitted using “log(inhibitor) vs. response - Variable slope (four parameters)” non-linear regression model on GraphPad Prism 5. […]
(§2) Fig. S5 TETs bind to DNA in a sequence- and modification-independent manner. A binding assay between a biotinylated 5mC dsDNA oligomer and His6-tagged TET was developed using AlphaScreen Histidine (Nickel Chelate) assay. […] Conditions: a 100 nM NgTet1 (50 nM 5mC dsDNA), b 12.5 nM TET2CDΔLCI (12.5 nM 5mC dsDNA), c 1.6 nM biotinylated His6 peptide. Each assay was supplemented with 50 μM sodium L-ascorbate, 5 μM (NH4)2Fe(SO4)2, and 5 μM disodium NOG. Data shown as the mean of three to four experimental replicates (n = 3–4; mean ± SD); tabulated data reported as the mean of two independent replicates (n = 2).

The target of the next series is T2, TET2CDΔLCI (Homo sapiens, UniProt Q6N021).
T2 construct: FLAG-[thrombin cleavage site]-SUMO (N); made in house; host or cells: E. coli
Described as above. In kind it is binding. The following applies: 12.5 nM TET2CDΔLCI, 12.5 nM 5mC dsDNA. As to the method: as §1, §2

Series [2] deals with T1, NgTet1. Put plainly: biochemical. The following applies: for normalised activity: NgTet1, NMR, 2 independent replicates.

Usually pIC50 stands for the IC50 on a negative log10 scale, so that one unit is a factor of ten. Higher therefore signals a low IC50. Regarding “5HC DNA: non-methylated DNA of the same sequence, 5'-ACC ACC GGT GGT-3', non-substrate (DNA ACCACCGGTGGT; DNA, backbone not given here)”, the figures for the pIC50 with NgTet1 [1] and in the series with TET2CDΔLCI were 4.24 and 5.05, respectively. Besides, the “competition pIC50 NgTet1” value with NgTet1 [1] (n = 2) is 4.24. The “competition pIC50 TET2CDΔLCI” value with TET2CDΔLCI (n = 2) is 5.05. Further, the “uncoupled 2OG decarboxylase activity relative to control” value with NgTet1 [2] (1.2 equivalents (6.17 μM) of ligand, no 5mC DNA substrate) was 188%. Further, the normalised activity with NgTet1 [2] (-Log[inhibitor] (M) 3.77815) was 173.555% and 199.834%; with NgTet1 [2] (-Log[inhibitor] (M) 4.25527) it was 239.054% and 238.734%; in the series with NgTet1 [2] (-Log[inhibitor] (M) 4.73239), 235.651% and 234.615%; with NgTet1 [2] (-Log[inhibitor] (M) 5.20951), 188.852% and 186.764%; with NgTet1 [2] (-Log[inhibitor] (M) 5.68664) it was 131.036% and 130.504%; with NgTet1 [2] (-Log[inhibitor] (M) 6.16376), 99.9166% and 102.373%. Moreover, the normalised activity with NgTet1 [2] (-Log[inhibitor] (M) 6.64088) was 99.5022% and 101.543%; in the series with NgTet1 [2] (-Log[inhibitor] (M) 7.118) it was 100.648% and 101.556%; in the series with NgTet1 [2] (-Log[inhibitor] (M) 7.59512), 99.7851% and 102.052%; with NgTet1 [2] (-Log[inhibitor] (M) 8.07224), 101.874% and 100.284%.

For the origin of these results see PMC11662004 (Communications Chemistry, 2024).
